How the values were obtained:
[1] = tested on: cocaine-induced behavioral sensitization; settings: given in acute withdrawal period from cocaine dosing; cited from earlier work
METH-sensitized rats = assay: Reversal of METH-induced behavioral sensitization by 5-HT2A/2C antagonists (motor activity after acute METH challenge); type: in vivo, rat; settings: ketanserin 1 mg/kg once daily M-F 3 weeks; 1 mg/kg METH challenge w/d day 30/31
Source text: Automation of observational evaluations was accomplished using computerized small animal monitors (AccuScan Instr. Inc., Columbus, Ohio). […] One feature of drug-induced behavioral sensitization is heterogeneity of motor responses and the AccuScan monitors quantify numerous behavioral indices. This is a critical point for the motor profile is exquisitely related to METH dose, the drug history of the rat and observation time. After 3- or 31-days of withdrawal from repeated METH injections, rats were allowed to achieve baseline motor activity with a 30 min habituation period, challenged with 1 mg/kg sc METH and monitored for 90 min.
Multiple 5-HT2A/2C antagonists with differing pharmacological profiles were tested for their ability to ameliorate METH-induced behavioral sensitization when administered after sensitization has developed. […] The doses were selected based on the antagonists' ability to block 5-HT2A- and 5-HT2C-mediated activity and their pharmacokinetic profiles.

ventral pallidal neurons = assay: Electrophysiology of ventral pallidal neurons, i.v. METH dose-response in chloral hydrate-anesthetized rats; type: in vivo, rat
Protocol: Based on the biochemical results and because the ventral pallidum contains one of the highest concentrations of 5-HT in the brain, electrophysiological evaluations of this region in rats behaviorally sensitized to METH were conducted (with a 5-day once daily treatment of 2.5 mg/kg). The acute challenge was intravenously administered METH (via a tail vein cannula) as previously used by T. C. Napier's lab ^e.g., [34] where the drug is given in a cumulative dosing fashion such that each dose, administered in 2 min-intervals, essentially doubles the previous dose. METH was tested using a range of 0.06-4.0 mg/kg in saline vehicle. […] Moreover, this approach establishes if systemic administration of METH, in doses that include those producing behavioral sensitization, are sufficient promote sensitized cellular responding and thus allows for direct comparisons of cellular responding to behavioral outcomes. After a 3-day withdrawal, the ability of intravenously administered METH or 1-(2,5-dimethoxy-4-iodophenyl)-2-aminopropane (DOI) to increase ventral pallidal cell firing was enhanced in chloral hydrate-anesthetized rats, as shown by a leftward shift in the dose-response curve with a […] and an increase in response efficacy for both agonists (FIG. 16) and this occurred without any changes in the portion of neurons showing a rate increase or decrease to the acute METH challenge.
Electrophysiological assessment of the ventral pallidum was also conducted 30 days after repeated METH. […] For each experiment, an i.v. METH dose-response curve (METH was tested using a range of 0.06-2.0 mg/kg in saline vehicle) was generated for one ventral pallidal neuron per rat at 30 days withdrawal from repeated METH. Based on the analysis of curves where there was an excitatory effect of i.v. METH on ventral pallidal neurons (171 animals), there was a diminished excitatory effect of i.v. METH in the ventral pallidum of rats that were pretreated with METH only. This is illustrated by both the curves and corresponding Emax data in FIG. 17. This decrease only at long-term withdrawal mirrors the reduction seen in pallidal pCREB only after 14, but not at 3 day withdrawal from repeated METH (see Example III).

5-HT3 = molecular target: T1, 5-HT3 (Homo sapiens, UniProt P46098); settings: read-out: receptor affinity (Ki) 5-HT3; cited from earlier work
T1 sequence (P46098 24-478): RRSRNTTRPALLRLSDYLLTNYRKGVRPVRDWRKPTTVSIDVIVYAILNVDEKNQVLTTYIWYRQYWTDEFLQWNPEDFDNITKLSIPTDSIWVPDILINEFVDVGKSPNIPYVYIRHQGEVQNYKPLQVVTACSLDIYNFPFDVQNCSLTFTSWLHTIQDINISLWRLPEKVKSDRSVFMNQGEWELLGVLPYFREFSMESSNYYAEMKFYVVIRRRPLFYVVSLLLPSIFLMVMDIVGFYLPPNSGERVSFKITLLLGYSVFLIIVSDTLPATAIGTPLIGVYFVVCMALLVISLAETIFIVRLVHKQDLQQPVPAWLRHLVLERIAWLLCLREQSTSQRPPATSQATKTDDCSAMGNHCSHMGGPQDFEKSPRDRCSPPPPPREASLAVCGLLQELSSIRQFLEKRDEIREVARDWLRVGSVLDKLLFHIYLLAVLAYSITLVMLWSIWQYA

D1 = D1 (Homo sapiens, UniProt P21728); settings: read-out: receptor affinity (Ki) D1; cited from earlier work
D1, sequence (P21728 whole entry): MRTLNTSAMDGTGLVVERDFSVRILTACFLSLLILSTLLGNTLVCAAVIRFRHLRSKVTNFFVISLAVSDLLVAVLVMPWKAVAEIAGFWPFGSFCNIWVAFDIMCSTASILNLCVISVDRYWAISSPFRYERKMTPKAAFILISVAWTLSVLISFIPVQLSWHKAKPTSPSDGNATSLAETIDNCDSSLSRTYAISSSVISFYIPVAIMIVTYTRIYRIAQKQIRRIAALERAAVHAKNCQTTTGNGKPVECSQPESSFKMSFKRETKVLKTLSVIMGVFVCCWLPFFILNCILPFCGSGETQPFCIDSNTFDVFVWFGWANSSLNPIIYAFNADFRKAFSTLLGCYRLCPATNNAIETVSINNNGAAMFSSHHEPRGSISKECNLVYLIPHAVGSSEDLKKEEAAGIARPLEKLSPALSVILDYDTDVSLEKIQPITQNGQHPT

5-HT2C = molecular target: T2, 5-HT2C (Homo sapiens, UniProt P28335); settings: read-out: receptor affinity (Ki) 5-HT2C; cited from earlier work
T2 sequence (P28335 33-458): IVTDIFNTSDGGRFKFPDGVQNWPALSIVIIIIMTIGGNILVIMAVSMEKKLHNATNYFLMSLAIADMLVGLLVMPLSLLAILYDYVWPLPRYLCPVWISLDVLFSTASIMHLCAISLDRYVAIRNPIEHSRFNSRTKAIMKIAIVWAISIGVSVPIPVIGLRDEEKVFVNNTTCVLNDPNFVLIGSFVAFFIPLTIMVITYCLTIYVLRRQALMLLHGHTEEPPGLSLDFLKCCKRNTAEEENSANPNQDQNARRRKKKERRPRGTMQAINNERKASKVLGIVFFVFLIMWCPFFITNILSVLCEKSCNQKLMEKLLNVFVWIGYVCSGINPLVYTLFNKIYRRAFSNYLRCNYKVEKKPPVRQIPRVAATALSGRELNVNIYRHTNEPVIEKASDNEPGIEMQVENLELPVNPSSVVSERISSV

5-HT1A = molecular target: T3, 5-HT1A (Homo sapiens, UniProt P08908); settings: read-out: receptor affinity (Ki) 5-HT1A; cited from earlier work
T3 sequence (P08908 1-422): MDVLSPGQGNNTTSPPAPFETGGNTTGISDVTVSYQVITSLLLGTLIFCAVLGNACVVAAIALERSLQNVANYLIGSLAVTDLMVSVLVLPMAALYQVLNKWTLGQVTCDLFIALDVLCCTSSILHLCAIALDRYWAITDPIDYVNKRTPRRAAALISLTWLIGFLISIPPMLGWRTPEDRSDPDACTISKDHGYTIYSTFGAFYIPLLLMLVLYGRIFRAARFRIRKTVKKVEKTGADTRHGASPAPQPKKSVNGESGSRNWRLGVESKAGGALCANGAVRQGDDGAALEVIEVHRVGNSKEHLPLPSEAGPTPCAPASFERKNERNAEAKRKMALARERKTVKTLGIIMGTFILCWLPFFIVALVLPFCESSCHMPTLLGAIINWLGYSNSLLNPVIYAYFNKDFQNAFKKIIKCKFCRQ

a = settings: read-out: receptor affinity (Ki) a; cited from earlier work
[2] = tested on: cocaine seeking behaviors; settings: rats, cited from earlier work; for maintenance of cocaine self-administration: 0.25-1 mg/kg, cocaine 0.5 mg/kg/infusion iv
METH-conditioned rats = assay: METH-induced conditioned place preference (CPP) with simultaneous motor sensitization; type: in vivo, rat; settings: single home cage injection 0.03, 0.1 or 1.0 mg/kg SDZ SER 082 24 h before test (FIG. 13)
Source text: The CPP box (Accuscan, Columbus, Ohio) consists of three Plexiglas compartments, each with distinct visual and tactile cues (on one side, patterned floor with object attached and horizontally striped wall; on the opposite side, smooth floor with no object and vertically striped walls; center—uniformly white floor and walls). The center compartment can be separated from the left and right compartments by removable guillotine doors. Motor activity in three dimensional space, and time spent, in each compartment is detected by two sets of photobeams set at different heights from the floor. Drug conditioning is performed by administering METH to the rat while it is in one compartment, and on the alternating day, saline is administered while the rat is confined to the opposite compartment. Confinement was achieved by blocking access to other compartments using the guillotine door. The center compartment is not seen by the rat during conditioning, and all conditioning sessions last for 45 min.
The inventors have determined that the number of METH-pairings, and the dose of METH, dictate the strength of the drug-environment association (i.e., the magnitude of salience attribution). The test for CPP is determined in a METH-free state (i.e., at least 48 hr after that last METH pairing), at which time the rats are placed in the center compartment and allowed free access to all compartments for 30 min, and the time spent in each compartment is the index of preference. The inventors have determined that the number of METH-pairings, and the dose of METH, dictate the strength of the drug-environment association (i.e., the magnitude of salience attribution) and thus the amount of time spent in the compartment previously paired with METH (FIG. 7), as well as persistence of this effect (i.e., how long it lasts; FIG. 8A). METH-induced motor sensitization can be assessed in several ways, including assessing the capacity of the rat to express an enhanced motor response to an acute METH challenge (FIGS. 9 & 10A).
To efficiently apply this approach to testing of 5-HT2A/2C antagonists, we determined that single pairing protocols of the CPP paradigm can be used to predict efficacy outcomes of 5-HT2A/2C antagonists in long-term tests on these drugs evaluating their capacity to nullify the persistent enhanced salience induced by METH. […] Thus, these protocols should help predict the capacity of novel therapeutic targets to halt a common problem of drug relapse, i.e., the ability of re-exposure to drugs like METH to immediately reinstate their abuse.

5-HT2A = 5-HT2A (Homo sapiens, UniProt P28223); settings: read-out: receptor affinity (Ki) 5-HT2A; cited from earlier work
5-HT2A, sequence (P28223 whole entry, species assumed): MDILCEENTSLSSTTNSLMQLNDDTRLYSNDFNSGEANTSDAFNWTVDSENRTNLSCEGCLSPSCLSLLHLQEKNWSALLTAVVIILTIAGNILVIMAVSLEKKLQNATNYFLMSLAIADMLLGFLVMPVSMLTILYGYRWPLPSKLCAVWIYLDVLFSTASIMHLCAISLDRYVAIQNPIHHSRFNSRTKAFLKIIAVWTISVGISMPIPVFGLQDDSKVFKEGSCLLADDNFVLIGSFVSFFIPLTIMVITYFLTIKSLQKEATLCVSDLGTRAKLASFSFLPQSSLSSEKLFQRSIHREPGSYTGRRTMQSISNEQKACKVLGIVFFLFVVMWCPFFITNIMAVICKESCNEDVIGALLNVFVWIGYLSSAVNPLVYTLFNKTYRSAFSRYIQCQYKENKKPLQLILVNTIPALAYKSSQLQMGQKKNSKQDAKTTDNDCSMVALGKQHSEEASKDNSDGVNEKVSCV

D2 = D2 (Homo sapiens, UniProt P14416); settings: read-out: receptor affinity (Ki) D2; cited from earlier work
D2, sequence (P14416 whole entry): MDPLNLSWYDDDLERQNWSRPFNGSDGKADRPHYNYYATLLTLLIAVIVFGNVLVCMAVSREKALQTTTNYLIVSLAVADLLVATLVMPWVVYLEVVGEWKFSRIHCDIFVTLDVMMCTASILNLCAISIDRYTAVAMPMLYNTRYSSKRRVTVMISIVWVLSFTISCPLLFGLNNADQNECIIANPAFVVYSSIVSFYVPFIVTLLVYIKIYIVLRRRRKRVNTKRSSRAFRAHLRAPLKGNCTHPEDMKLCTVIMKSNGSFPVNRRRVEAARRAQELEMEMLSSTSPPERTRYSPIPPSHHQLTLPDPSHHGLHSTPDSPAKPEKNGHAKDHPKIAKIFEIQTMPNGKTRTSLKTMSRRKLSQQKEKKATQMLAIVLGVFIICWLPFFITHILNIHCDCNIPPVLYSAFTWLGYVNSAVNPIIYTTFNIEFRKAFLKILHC

O=C(c1ccc(F)cc1)C1CCN(CCn2c(=O)[nH]c3ccccc3c2=O)CC1 [ketanserin]
established behavioral sensitization to cocaine [1]: reverse the established behavioral sensitization | effect on horizontal activity and vertical movements in METH-pretreated group (METH-sensitized rats): appeared to potentiate the effect | locomotor effects on saline-pretreated animals (acute METH challenge) (METH-sensitized rats): did not produce any locomotor effects | Emax of Firing Rate Increases of Acute Meth (ventral pallidal neurons; METH days 1-5, then antagonist, tested 31 days after last METH): 177% ± 18% (n = 4)

CN1CCC2CN3CCc4cccc(c43)C2C1 (stereo not drawn) [SDZ SER 082, 4,5,7a,8,9,10,11,11 a,-octahydro-7H-10-methylindolo[1,7,bc][2,6]-napthyridine]
Ki (5-HT3): > 1000 nM | Ki (D1): > 1000 nM | Ki (5-HT2C): 15 nM | Ki (5-HT1A): 800 nM | Ki (a): > 1000 nM | maintenance of cocaine self-administration [2]: Neither SR 46349B (0.25-1 mg/kg) nor SDZ SER 082 (0.25-1 mg/kg) altered | cue- and cocaine priming-induced reinstatement ([2]; cocaine priming 10 mg/kg ip or cue): failed to alter | METH-induced CPP after single pairing of 1.0 METH (METH-conditioned rats): reverses METH-induced CPP in a dose-dependent fashion | Ki (5-HT2A): 600 nM | Ki (D2): > 1000 nM

CN1CCN2c3ccccc3Cc3ccccc3C2C1 (stereo not drawn) [mianserin]
established behavioral sensitization to cocaine [1]: reverse the established behavioral sensitization

CN(C)CCO/N=C(/C=C/c1ccc(O)cc1)c1ccccc1F.CN(C)CCO/N=C(/C=C/c1ccc(O)cc1)c1ccccc1F.O=C(O)/C=C/C(=O)O [SR 46349B]
maintenance of cocaine self-administration [2]: Neither SR 46349B (0.25-1 mg/kg) nor SDZ SER 082 (0.25-1 mg/kg) altered

CN[C@@H](C)Cc1ccccc1 [METH, Methamphetamine]
Emax of Firing Rate Increases of Acute Meth (ventral pallidal neurons; repeated METH days 1-5, then vehicle, P < 0.05 vs saline + vehicle): 161% ± 16% (n = 11)

Cc1nccn1CC1CCc2c(c3ccccc3n2C)C1=O (stereo not drawn) [ondansetron]
established behavioral sensitization to cocaine [1]: reverse the established behavioral sensitization

Reference: patent US20060035889A1, “Treatment for methamphetamine addiction and reduction of methamphetamine use using serotonin antagonists” (priority 2004, published 2006)
